We go through three molecules from ChEMBL document CHEMBL4052759, “Discovery of DS79182026: A potent orally active hepcidin production inhibitor” (Bioorg Med Chem Lett, 2017).

Assay [1] has as its target Tyrosine-protein kinase Lyn (Homo sapiens) (UniProt P07948). Nature of the assay: Inhibition of LYNB (unknown origin) at 0.49 uM relative to control.
The target of assay [2] is Ribosomal protein S6 kinase alpha-5 (Homo sapiens) (UniProt O75582). Description: Inhibition of MSK1 (unknown origin) at 0.49 uM relative to control.
Assay [3] addresses RAC-gamma serine/threonine-protein kinase (Homo sapiens) (UniProt Q9Y243). Description: Inhibition of AKT3 (unknown origin) at 0.49 uM relative to control.
The target in assay [4] is T1, Serine/threonine-protein kinase Sgk1 (Homo sapiens) (UniProt O00141).
T1 sequence (whole entry): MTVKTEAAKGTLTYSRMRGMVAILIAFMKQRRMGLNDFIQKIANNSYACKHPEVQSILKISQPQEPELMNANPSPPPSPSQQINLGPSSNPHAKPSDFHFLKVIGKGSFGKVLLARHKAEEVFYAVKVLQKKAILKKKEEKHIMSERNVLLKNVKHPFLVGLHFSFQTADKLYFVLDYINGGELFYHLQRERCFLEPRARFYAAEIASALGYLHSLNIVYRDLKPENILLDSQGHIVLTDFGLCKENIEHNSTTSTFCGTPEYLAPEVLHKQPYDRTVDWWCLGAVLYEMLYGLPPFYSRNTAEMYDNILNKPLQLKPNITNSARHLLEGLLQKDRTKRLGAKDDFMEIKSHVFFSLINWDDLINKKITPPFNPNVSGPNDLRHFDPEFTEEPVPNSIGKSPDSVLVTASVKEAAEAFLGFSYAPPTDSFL
Nature of the assay: Inhibition of SGK1 (unknown origin) at 0.49 uM relative to control.

Assay [5] concerns the target MAP/microtubule affinity-regulating kinase 4 (Homo sapiens) (UniProt Q96L34). Description: Inhibition of MARK4 (unknown origin) at 0.49 uM relative to control.
Assay [6] deals with Proto-oncogene tyrosine-protein kinase receptor Ret (Homo sapiens) (UniProt P07949). Nature of the assay: Inhibition of RET (unknown origin) at 0.49 uM relative to control.
Assay [7] has as its target AMPK alpha2/beta1/gamma1 (Homo sapiens) (UniProt P54646+P54619+Q9Y478). Description: Inhibition of AMPK-alpha2/beta1/gamma1 (unknown origin) at 0.45 uM relative to control. In kind it is protein-complex assay.
The test system of assay [8] is Fibroblast growth factor receptor 1 (Homo sapiens), P11362 [V561M]. Nature of the assay: Inhibition of FGFR1 V561M mutant (unknown origin) at 0.45 uM relative to control.
For assay [9], the target named is Tyrosine-protein kinase BTK (Homo sapiens) (UniProt Q06187). Description: Inhibition of BTK (unknown origin) at 0.45 uM relative to control.
Assay [10] concerns the target T1, Serine/threonine-protein kinase Sgk1 (Homo sapiens). Description: Inhibition of SGK1 (unknown origin) at 0.45 uM relative to control.
Assay [11] deals with Fibroblast growth factor receptor 2 (Homo sapiens), P21802 [N549H]. Nature of the assay: Inhibition of FGFR2 N549H mutant (unknown origin) at 0.45 uM.
Assay [12] has as its target T2, Protein kinase C zeta type (Homo sapiens) (UniProt Q05513).
T2 sequence (whole entry): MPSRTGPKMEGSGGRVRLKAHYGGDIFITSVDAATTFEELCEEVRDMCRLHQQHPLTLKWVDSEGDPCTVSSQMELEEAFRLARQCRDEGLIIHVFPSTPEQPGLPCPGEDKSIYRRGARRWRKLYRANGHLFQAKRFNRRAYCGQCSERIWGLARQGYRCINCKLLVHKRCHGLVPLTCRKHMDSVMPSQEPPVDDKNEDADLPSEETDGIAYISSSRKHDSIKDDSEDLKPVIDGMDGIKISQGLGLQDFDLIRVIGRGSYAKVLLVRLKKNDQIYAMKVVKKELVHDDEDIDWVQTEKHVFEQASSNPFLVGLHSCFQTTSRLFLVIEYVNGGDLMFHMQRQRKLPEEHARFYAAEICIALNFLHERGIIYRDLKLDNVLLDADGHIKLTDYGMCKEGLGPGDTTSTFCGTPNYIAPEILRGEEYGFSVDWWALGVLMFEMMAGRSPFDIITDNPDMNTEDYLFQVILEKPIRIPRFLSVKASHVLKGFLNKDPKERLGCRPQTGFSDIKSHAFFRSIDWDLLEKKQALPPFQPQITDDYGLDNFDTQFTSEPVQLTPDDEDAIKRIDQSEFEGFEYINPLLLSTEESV
Nature of the assay: Inhibition of PKC-zeta (unknown origin) at 0.45 uM relative to control.

Assay [13] addresses MAP kinase-activated protein kinase 3 (Homo sapiens) (UniProt Q16644). Description: Inhibition of MAPKAPK3 (unknown origin) at 0.45 uM relative to control.
Assay [14] concerns the target T3, cGMP-dependent protein kinase 1 (Homo sapiens) (UniProt Q13976).
T3 sequence (whole entry): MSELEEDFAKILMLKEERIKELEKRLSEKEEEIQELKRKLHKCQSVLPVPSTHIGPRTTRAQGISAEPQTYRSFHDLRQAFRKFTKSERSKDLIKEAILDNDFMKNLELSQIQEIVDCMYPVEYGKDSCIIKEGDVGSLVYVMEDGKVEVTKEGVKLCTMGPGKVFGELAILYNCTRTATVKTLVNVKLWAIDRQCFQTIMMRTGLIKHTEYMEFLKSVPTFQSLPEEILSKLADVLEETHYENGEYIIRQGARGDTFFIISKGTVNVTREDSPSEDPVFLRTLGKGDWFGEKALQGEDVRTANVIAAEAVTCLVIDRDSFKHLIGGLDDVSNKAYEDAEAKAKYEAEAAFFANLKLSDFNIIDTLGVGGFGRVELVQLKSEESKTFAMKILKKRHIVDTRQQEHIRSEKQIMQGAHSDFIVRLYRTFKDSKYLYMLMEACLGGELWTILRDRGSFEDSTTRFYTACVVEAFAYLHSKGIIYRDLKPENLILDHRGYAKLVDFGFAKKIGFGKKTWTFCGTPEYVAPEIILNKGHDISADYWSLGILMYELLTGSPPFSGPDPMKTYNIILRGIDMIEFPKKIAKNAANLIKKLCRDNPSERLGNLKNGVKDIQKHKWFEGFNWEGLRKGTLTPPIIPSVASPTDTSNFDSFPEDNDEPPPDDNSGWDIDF
Description: Inhibition of PKG-alpha (unknown origin) at 0.45 uM relative to control.

The target in assay [15] is Tyrosine-protein kinase SYK (Homo sapiens) (UniProt P43405). Description: Inhibition of SYK (unknown origin) at 0.078 uM relative to control.
Assay [16] addresses MAP kinase-activated protein kinase 2 (Homo sapiens) (UniProt P49137). Description: Inhibition of MAPKAPK2 (unknown origin) at 0.078 uM relative to control.
For assay [17], the target named is Mitogen-activated protein kinase 3 (Homo sapiens) (UniProt P27361). Description: Inhibition of Erk1 (unknown origin) at 0.078 uM relative to control.
Assay [18] has as its target RAC-alpha serine/threonine-protein kinase (Homo sapiens) (UniProt P31749). Description: Inhibition of AKT1 (unknown origin) at 0.078 uM relative to control.
For assay [19], the target named is Rho-associated protein kinase 2 (Homo sapiens) (UniProt O75116). Description: Inhibition of ROCK2 (unknown origin) at 0.078 uM relative to control.

SMILES strings stand for the structures.

Chain of Mitogen-activated protein kinase 3 (Homo sapiens) (P27361 whole entry): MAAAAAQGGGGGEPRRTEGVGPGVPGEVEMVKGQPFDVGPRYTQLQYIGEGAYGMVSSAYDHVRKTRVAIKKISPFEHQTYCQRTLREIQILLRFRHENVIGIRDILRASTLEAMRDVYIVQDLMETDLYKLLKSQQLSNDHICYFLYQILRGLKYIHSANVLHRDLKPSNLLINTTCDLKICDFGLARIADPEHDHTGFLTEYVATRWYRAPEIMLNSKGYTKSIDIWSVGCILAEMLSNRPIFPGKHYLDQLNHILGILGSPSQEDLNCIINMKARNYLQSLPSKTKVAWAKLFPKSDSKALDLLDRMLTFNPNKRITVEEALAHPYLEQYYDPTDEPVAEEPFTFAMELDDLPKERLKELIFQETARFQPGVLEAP
Chain of MAP kinase-activated protein kinase 3 (Homo sapiens) (Q16644 whole entry, looked up): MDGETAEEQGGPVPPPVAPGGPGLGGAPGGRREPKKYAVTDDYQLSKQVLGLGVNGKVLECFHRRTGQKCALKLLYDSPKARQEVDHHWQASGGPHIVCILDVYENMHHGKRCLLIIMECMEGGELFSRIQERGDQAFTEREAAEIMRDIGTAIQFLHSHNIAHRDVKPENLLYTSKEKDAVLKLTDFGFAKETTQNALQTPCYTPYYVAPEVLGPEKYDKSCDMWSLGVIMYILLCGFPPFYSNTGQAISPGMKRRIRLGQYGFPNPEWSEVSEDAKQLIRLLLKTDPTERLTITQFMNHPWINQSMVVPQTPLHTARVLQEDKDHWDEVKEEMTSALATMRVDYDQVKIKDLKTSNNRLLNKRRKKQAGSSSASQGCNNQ
Chain of Fibroblast growth factor receptor 2 (Homo sapiens), P21802 [N549H] (P21802 whole entry N549H): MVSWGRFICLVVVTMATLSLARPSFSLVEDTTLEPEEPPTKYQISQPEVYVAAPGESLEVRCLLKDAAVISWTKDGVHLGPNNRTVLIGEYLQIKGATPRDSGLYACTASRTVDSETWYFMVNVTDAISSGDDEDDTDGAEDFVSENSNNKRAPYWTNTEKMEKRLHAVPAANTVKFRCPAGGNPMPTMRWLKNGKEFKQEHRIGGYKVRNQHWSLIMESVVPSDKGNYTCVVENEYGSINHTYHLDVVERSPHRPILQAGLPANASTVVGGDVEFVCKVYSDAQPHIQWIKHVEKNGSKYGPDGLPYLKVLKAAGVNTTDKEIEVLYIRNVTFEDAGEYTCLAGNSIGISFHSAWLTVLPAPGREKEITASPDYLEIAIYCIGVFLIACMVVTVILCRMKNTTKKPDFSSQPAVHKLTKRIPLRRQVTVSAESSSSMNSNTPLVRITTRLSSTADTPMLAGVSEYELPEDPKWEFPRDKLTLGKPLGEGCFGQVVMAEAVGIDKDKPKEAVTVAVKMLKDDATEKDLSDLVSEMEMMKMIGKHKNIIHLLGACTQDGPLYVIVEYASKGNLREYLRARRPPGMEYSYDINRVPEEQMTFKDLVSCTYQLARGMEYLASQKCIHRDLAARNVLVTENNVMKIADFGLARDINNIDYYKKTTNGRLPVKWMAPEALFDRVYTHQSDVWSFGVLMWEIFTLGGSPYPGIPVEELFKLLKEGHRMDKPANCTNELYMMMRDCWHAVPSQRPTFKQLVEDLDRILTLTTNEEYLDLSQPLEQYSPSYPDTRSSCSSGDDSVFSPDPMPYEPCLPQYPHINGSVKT
Chain of RAC-gamma serine/threonine-protein kinase (Homo sapiens) (Q9Y243 whole entry): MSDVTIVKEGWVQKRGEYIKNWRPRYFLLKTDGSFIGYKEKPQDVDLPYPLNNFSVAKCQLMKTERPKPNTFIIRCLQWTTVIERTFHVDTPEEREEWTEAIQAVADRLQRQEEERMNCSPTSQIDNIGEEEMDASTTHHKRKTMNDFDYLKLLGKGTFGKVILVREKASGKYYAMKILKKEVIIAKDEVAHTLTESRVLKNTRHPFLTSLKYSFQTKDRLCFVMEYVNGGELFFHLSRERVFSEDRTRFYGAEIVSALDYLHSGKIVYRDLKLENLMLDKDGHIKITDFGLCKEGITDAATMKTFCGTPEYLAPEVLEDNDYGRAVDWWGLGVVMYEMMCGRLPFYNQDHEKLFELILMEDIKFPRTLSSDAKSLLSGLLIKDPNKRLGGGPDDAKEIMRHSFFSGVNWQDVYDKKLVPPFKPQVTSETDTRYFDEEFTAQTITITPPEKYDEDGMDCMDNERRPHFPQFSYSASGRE
Chain of Proto-oncogene tyrosine-protein kinase receptor Ret (Homo sapiens) (P07949 whole entry): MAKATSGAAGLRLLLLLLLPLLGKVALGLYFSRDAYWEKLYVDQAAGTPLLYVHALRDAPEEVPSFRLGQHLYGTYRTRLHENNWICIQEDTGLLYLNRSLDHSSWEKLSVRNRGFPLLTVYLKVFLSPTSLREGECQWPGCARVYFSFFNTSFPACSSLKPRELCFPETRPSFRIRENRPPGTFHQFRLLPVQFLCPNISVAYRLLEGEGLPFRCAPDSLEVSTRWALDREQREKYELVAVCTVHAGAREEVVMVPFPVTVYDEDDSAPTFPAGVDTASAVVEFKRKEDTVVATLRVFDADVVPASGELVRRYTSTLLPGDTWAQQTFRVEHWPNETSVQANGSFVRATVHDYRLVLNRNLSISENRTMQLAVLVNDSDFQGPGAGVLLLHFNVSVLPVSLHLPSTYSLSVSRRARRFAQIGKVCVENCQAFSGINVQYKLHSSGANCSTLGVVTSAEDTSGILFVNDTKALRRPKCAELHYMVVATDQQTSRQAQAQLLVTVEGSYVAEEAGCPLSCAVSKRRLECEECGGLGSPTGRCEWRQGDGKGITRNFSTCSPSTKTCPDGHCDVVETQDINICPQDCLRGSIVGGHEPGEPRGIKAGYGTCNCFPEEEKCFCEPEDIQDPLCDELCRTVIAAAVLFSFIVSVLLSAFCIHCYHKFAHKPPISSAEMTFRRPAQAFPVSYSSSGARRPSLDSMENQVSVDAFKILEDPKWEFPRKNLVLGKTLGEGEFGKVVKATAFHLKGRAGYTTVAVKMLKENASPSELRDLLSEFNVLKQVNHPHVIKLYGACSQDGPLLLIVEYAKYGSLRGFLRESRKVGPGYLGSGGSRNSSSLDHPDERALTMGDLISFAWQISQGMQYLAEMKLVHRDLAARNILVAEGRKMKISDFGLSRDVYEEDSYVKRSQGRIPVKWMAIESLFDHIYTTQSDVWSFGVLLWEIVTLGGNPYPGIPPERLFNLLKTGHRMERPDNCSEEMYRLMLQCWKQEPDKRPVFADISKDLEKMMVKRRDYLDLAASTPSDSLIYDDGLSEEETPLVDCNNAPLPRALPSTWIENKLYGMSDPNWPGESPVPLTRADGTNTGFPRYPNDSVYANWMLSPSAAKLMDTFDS
Chain of Tyrosine-protein kinase BTK (Homo sapiens) (Q06187 whole entry): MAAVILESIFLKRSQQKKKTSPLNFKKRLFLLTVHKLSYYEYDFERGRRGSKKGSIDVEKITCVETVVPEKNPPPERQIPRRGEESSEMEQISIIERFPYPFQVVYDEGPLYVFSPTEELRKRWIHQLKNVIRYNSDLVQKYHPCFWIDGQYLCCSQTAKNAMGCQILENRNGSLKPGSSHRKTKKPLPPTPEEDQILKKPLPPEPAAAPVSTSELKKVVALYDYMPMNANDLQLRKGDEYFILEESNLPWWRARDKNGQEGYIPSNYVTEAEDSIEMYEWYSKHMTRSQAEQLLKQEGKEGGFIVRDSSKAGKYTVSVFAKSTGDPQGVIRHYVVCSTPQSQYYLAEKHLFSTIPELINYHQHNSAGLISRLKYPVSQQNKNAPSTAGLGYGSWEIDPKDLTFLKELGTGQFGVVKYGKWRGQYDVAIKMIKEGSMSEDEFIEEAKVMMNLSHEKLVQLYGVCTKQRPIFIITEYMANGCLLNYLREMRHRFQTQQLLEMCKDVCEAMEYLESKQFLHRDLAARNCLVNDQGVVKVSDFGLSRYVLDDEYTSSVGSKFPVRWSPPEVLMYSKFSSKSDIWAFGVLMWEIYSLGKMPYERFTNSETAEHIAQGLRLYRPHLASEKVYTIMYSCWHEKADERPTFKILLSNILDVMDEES
Chain of RAC-alpha serine/threonine-protein kinase (Homo sapiens) (P31749 whole entry): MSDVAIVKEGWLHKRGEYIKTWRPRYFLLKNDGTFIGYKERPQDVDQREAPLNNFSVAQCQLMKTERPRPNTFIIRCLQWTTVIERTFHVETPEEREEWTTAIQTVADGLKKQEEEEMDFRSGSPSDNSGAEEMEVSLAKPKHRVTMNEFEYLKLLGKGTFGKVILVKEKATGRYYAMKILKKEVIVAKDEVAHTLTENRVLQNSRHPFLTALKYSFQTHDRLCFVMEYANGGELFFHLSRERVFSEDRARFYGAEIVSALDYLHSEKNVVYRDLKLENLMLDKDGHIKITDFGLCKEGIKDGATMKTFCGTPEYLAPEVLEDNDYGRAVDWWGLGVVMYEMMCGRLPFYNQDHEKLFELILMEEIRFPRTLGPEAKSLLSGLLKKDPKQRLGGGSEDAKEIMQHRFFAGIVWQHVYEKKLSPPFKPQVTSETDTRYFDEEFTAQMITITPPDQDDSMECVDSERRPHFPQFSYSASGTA
Chain of MAP kinase-activated protein kinase 2 (Homo sapiens) (P49137 whole entry, looked up): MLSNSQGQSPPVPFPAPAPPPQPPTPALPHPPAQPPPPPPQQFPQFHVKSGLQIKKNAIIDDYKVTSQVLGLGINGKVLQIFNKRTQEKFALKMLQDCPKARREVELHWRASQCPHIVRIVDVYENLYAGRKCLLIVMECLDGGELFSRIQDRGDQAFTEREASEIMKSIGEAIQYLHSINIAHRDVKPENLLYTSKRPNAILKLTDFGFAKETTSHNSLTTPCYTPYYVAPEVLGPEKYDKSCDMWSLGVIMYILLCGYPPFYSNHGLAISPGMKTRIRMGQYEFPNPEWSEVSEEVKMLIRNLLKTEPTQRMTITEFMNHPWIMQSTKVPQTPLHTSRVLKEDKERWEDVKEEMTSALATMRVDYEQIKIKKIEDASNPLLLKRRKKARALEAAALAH

In general, inhibition refers to the drop in the measured response relative to a control, in per cent. As to `Cc1[nH]nc(C2CC2)c1-c1ccc2c(NC(=O)C3CC3)noc2c1`, the inhibition amounted to 3% in assay [1]; 5.7% in [2]; 7.3% in assay [3]; 2.3% in assay [4]; 8.7% in assay [5]; 15% in assay [6].
Turning to `Cc1n[nH]c(C)c1-c1ccc2c(NC(=O)c3ccc(N4CCN(C)CC4)cc3)n[nH]c2c1`, the inhibition is 26% in [7]; 23.7% in assay [8]; 5% in [9]; 2.3% in assay [10]; 40% in assay [11]; 7% in assay [12]. For the same molecule, the values for the inhibition in [13] and in [14] were 4% and -1.7%, respectively.
With `COC(=O)Nc1noc2cc(-c3c(-c4ccccn4)n[nH]c3C)ccc12`, the inhibition was 0% in assay [15]; 4.7% in assay [16]; 8% in [17]; -1% in assay [18]; -2% in [19].
